Like-named read-outs stand apart in the source and are kept apart here. Peptide text beside a SMILES is read from it. * marks the point of attachment. Cbz = O=C(OCc1ccccc1)*

One assay deals with normal human fibroblasts. In words: ROS (DCF fluorescence) in normal human fibroblasts. The format is cell-based. The settings on record: for effect on ROS induction by SSc IgG in normal fibroblasts: FIG. 2A, pre-incubation for 2 hours (AG1478 2 μM, FT-277 20 μM, PD98059 40 μM). The procedure:
(§1) Fluorimetric determination of intracellular ROS generated by adherent fibroblasts was estimated after loading the cells with 2′,7′-dichlorofluorescein diacetate (DCFH-DA 10 μM, Molecular Probes, PoortGebouw, The Nederlands) for 15 min at 37° C. The DCF fluorescence intensity was measured by a CytoFluor plate reader (PerkinElmer, Wallac, Finland) (excitation wavelength, 485 nm; emission wavelength, 530 nm) (8). Ten measurements were made in each single well from ten distinct points and the values averaged. Each IgG sample was run in duplicate and the average has been recorded. The results are expressed as DCF fluorescence intensity calculated subtracting from the DCF fluorescence intensity of the test IgG the DCF fluorescence intensity of a negative control obtained by cell cultured without IgG. The intra-plate and the inter-plate coefficient of variation was less than 3%. The samples were recorded as positive if the SI was greater than the mean plus three standard deviations of the normal group.
In selected experiments ROS generation was evaluated after the addition of PDGF receptor tyrosine kinase inhibitor (AG 1296; 2 μM for 2 hours), Epidermal growth factor (EGF) receptor tyrosine kinase inhibitor (AG 1478; 2 μM for 2 hours), a chemical inhibitor of ERK 1/2 signalling (PD 98059; 40 μM for 2 hours), and a farnesyl protein transferase inhibitor to block Ras farnesylation (FTI-277; 20 μM for 2 hours). AG 1296, AG 1478, PD 98059 and FTI-277 were obtained from Calbiochem (San Diego, Calif.).
Fluorimetric determination of intracellular ROS generated by fibroblasts was estimated after loading the cells with DCFH-DA (10 μM) for 15 min at 37° C. before assessing DCF fluorescence level (15). Superoxide anion release was estimated using the superoxide dismutase-inhibitable cytochrome c reduction (12). H2O2 release from fibroblasts into the overlying medium was assayed using a modification of the method of Valletta and Berton (1987) (16). Oxidative activity imaging in living, transfected cells was evaluated as described (12, 17).

The subject of another assay is Ha-Ras. In words: Ha-Ras / Ki-Ras protein levels in primary fibroblasts (immunoprecipitation, immunoblot, immunofluorescence, FACS). It counts as cell-based, human. As to conditions: for effect on Ha Ras levels / effect on Ha-Ras induction by PDGF: primary fibroblasts. The procedure:
Ras proteins were immunoprecipitated from cultured fibroblasts with polyclonal anti pan Ras antibody (Santa Cruz Biotechnology, Santa Cruz, Calif.) following recommended procedures from the manufacturer.
Fibroblasts, cultured on Lab-Tek chamber glass slides (Nalge-Nunc, Ill., USA) and starved 48 h before stimulation or addition of inhibitors, were fixed 4% para-formaldheide, permeabilized by 0.1% Triton-X, and stained with a monoclonal antibody against Ha-Ras and then with a tetramethylrhodamine-isothiocyanate (TRITC) conjugated secondary antibody (Molecular Probes, NL). Slides were mounted with Vectarshield (H-100; Vector, Burlingame, Calif.) and examined using a BioRad (Hemel Hempstead, UK) microradiance confocal laser-scanning microscope equipped with argon and helium/neon lasers. Acquired images were analysed using the Laser Sharp Processing BioRad software (version 3.2). All images from different slides condition were acquired in double-blinded fashion.
Cells were grown to semiconfluency in 60 mm culture dishes. After trypsin detachment, 5×10^5 cells were suspended in 1 ml of phosphate buffered saline (PBS) and fixed overnight with 1% formaldehyde at room temperature. Next, cells were permeabilized with 0.1% Triton×100 for 40 min at 4° C., washed 4 times with 2 ml of PBS containing 2% FBS, 0.01% NaN3, 0.1% Triton×100 (buffer A), and incubated for 45 min at 4° C. with 1:50 dilution of monoclonal and polyclonal anti HaRas antibodies (Santa Cruz Biotechnology, Santa Cruz, Calif., USA). The cells were then washed twice with the same buffer and incubated for 45 min at 4° C. with Cy2-conjugated anti-mouse IgG antibodies (Amersham Pharmacia Biotech, Milano, Italia) at 1:50 dilution. Control cells were incubated with Cy2-conjugated anti mouse IgG antibodies alone. After two washes in buffer A, cells were resuspended in PBS and analyzed by flow cytometry using FACScan (BD, Heidelberg, Germany) and WinMDI software.
On the technique in general: Immunoblotting shows a protein as a band on a membrane.

The next assay deals with T1, PDGFR (Homo sapiens, UniProt P09619).
T1 construct: endogenous in cells; host or cells: normal human fibroblasts
In words: Tyrosine phosphorylation of the PDGFR in normal fibroblasts. The format is cell-based. The settings on record: FIG. 2D and data not shown. The procedure:
Panel D. Normal human fibroblasts were stimulated with SSc IgG (200 μg/ml for 15 min), PDGF (15 ng/ml for 15 min) or grown in FCS 0.2%. Cell lysates were immunoprecipitated with a polyclonal antibody against PDGFR (subunit β) and the immunoblots were developed with a specific antibody against phosphorylated tyrosine.

Assay [1] has as its system Umbilical vein endothelial cells. In words: Apoptosis of umbilical vein endothelial cells (annexin V FACS). As to conditions: overnight; SSc IgG 200 μg/ml, PDGF 15 ng/ml; FIG. 3C. It counts as cell-based. The procedure:
Endothelial cells will be isolated from umbilical cord. Cells were stimulated with SSc IgG (200 μg/ml), normal IgG (200 μg/ml) and PDGF (15 ng/ml) for 12 hours in the presence and in the absence of inhibitors of PDGFR and EGFR tyrosine kinase activity.
(§2) Six hours after the removal of the stimulus, apoptosis was detected by FACS analysis using annexin V-Cy3 (Clontech, Palo Alto Calif.). Statistical analysis

For another assay, the system named is PDGF receptor. Description: PDGF receptor level in primary fibroblast extracts (immunoblot). The settings on record: independently on ERK1/2 activation; FIG. 5D. It counts as cell-based, human. The procedure:
D. PDGF induction of Ha-Ras is mediated by ERK1/2. Fibroblasts, incubated in 0.2% FCS for 48 h, were treated with the MEK inhibitors, PD98059 (40 μM) 2 h, before the treatment with PDGF (15 ng/ml).

Assay [2] addresses T2, PDGFR α subunit expressed by Fα cells (Homo sapiens, UniProt P16234).
T2 construct: expressed in transfected cells; host or cells: mouse embryo fibroblasts from PDGF receptor knock-out embryos (F-/-) infected with PDGFR α (Fα cells)
In words: Bio-assay for anti PDGFR autoantibodies: ROS production (DCF fluorescence) in Fα cells. As to conditions: pre-incubation 2 μM for 2 hours. It counts as cell-based, mouse. The procedure:
Patients and control serum samples were tested for the presence of PDGFR activating autoantibodies in a functional bioassay based on the production of ROS by mouse embryo fibroblasts infected with PDGFR α and/or β subunits and exposed in vitro to immunopurified IgG. Control cells were F−/− cells devoid of PDGFR. In brief, cells were plated in duplicate at a density of 30,000 cells in 1.83-cm^2 wells and incubated for 24 hours at 37° C. in 0.2 percent fetal calf serum. The cells were then washed with phosphate-buffered saline and incubated with a pre-determined amount of control or patient IgG for 15 minutes at 37° C. before ROS production determination.
as §1, with “Ten measurements were made in each single well from ten distinct points and the values averaged.” left out, “The intra-plate and the inter-plate coefficient of variation was less than 3%. The samples were recorded as positive if the SI was greater than the mean plus three standard deviations of the normal group.” left out

The subject of the next assay is ERK1/2. In words: P-ERK1/2 immunoblot in primary fibroblasts. It counts as cell-based, human. The settings on record: for effect on ERK1/2 activated by PDGF: NAC 20 mM 5 h, DPI 20 μM 1 h, FIG. 5E. The procedure:
Cell culture plates were lysed with 0.3 ml of cold RIPA buffer (1×PBS, 1% Nonidet P-40, 0.5% sodium deoxycholate, 0.1% SDS, 2 mM sodium orthovanadate, 2 μg/ml aprotinin, 1 mM PMSF) and processed for immunoblotting as described (8).
Cell culture plates were lysed with 0.3 ml of cold RIPA buffer (1×PBS, 1% Nonidet P-40, 0.5% sodium deoxycholate, 0.1% SDS, 2 mM sodium orthovanadate, 2 μg/ml aprotinin, 1 mM PMSF) and processed as described (14).

The test system of another assay is SSc fibroblasts. Description: Oxidative stress-induced apoptosis in scleroderma fibroblasts. As to conditions: H2O2, pre-treatment, FIG. 8C. It counts as cell-based, human. The procedure:
Normal and scleroderma fibroblasts were grown to 80-90% confluence and treated for 2 h with different concentrations of H2O2. When needed, cells were preincubated 30 min with PD 98059 (40 μmol/L).
as §2

Setting [3] is: 90 min in the presence of genistein, data not shown.

T2 sequence (P16234 24-1089): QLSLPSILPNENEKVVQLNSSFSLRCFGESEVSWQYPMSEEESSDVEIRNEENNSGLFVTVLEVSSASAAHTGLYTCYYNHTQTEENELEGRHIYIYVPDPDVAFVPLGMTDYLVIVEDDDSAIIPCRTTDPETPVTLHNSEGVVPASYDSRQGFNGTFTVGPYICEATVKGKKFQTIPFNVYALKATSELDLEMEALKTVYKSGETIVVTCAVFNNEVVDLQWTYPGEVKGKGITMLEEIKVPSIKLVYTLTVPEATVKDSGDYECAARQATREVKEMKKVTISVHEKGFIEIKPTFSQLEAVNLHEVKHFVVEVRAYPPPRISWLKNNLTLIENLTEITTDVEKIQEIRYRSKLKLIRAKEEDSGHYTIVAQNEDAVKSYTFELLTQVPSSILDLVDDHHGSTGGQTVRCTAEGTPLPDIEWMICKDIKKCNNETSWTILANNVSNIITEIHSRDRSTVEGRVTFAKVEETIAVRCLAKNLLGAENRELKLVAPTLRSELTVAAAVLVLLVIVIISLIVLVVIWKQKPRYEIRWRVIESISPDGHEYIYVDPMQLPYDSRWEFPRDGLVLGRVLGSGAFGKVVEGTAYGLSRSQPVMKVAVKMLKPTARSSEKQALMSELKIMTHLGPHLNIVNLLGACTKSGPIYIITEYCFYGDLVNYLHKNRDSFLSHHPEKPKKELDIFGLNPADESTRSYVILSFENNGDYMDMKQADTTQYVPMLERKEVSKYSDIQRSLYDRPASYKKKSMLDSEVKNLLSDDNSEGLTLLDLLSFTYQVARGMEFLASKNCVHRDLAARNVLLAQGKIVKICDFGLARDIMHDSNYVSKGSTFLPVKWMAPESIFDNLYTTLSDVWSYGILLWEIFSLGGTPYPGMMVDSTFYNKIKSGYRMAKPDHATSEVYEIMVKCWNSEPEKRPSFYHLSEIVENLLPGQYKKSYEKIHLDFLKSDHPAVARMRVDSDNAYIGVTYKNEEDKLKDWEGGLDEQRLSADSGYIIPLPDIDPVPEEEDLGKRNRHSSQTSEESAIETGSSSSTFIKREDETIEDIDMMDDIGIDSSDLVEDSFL
T1 sequence (P09619 33-1106): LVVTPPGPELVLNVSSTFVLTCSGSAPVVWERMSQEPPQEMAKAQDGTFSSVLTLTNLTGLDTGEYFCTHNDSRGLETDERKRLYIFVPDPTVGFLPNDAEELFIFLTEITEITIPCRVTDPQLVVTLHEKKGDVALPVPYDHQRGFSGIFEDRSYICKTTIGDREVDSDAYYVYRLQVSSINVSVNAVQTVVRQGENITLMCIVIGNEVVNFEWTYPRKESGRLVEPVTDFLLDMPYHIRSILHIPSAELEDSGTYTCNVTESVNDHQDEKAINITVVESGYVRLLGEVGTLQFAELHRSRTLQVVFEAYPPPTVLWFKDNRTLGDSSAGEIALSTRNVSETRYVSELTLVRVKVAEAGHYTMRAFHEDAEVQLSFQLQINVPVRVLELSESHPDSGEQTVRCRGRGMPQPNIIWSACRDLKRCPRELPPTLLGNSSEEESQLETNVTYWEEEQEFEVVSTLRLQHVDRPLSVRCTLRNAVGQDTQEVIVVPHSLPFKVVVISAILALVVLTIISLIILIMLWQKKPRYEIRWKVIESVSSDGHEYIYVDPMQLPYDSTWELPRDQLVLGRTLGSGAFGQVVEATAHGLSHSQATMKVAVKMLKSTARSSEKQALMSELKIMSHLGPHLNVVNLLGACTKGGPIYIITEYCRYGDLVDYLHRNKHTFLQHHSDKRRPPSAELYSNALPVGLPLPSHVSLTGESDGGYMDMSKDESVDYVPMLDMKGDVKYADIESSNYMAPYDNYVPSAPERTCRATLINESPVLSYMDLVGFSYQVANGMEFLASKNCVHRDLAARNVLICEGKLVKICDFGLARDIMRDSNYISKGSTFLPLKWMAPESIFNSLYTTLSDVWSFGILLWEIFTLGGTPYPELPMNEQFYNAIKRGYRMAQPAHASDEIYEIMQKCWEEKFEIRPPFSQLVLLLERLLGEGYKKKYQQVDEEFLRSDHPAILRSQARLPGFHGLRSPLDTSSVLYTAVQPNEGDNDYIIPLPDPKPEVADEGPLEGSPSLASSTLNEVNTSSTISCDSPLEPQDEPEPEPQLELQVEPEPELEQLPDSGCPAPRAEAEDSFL

For the compound PDGF, the “duration of induced ROS (return to baseline)” value in the assay on normal human fibroblasts (discussion, cells not given) was 15 to 30 min. Besides, in the assay with Ha-Ras (estimated from several experiments), the “half-life of Ha-Ras protein induced by PDGF” value is given as “approximately 40 min”. The Ki-Ras decay time on Ha-Ras (of PDGF stimulation, FIG. 4A) came out at 3 h. Also, in the assay on Ha-Ras (primary human fibroblasts, growth factor still present), the “time after stimulation at which Ha-Ras decreased to the initial levels” value came out at 120 min. For the same compound, the “PDGF stimulation time sufficient to induce Ha-Ras protein” value in the assay on Ha-Ras (quiescent primary human fibroblasts, PDGF 15 ng/ml) amounted to 15 min. Moreover, the “duration of PDGFR tyrosine phosphorylation” value on PDGFR amounted to 15 min. Moreover, the “induction of endothelial cell apoptosis” value in assay [1] is “unable to induce apoptosis”. The PDGF receptor level entry in the assay with PDGF receptor is reported as “down-regulated”.

For `CC[C@@]1([C@@H]2O[C@@H]([C@H]3O[C@@](O)(CO)[C@H](C)C[C@@H]3C)C[C@@H]2C)CC[C@H]([C@]2(C)CC[C@]3(C[C@H](O)[C@@H](C)[C@@H]([C@@H](C)[C@@H](OC)[C@H](C)C(=O)O)O3)O2)O1` [monensin], the “effect on Ha Ras levels” value with Ha-Ras (FIG. 6E) is recorded as “no effect”.

Turning to `OO` [H2O2], the “Ha Ras induction in the presence of genistein” value in the assay with Ha-Ras (FIG. 6D) is reported as “powerful inducer”.

With `N#CC(=C(/N)Sc1ccccc1N)/C(C#N)=C(\N)Sc1ccccc1N` [U0126], the “effect on induction of Ha-Ras by H2O2” value with Ha-Ras is reported as “abolished”.

For the compound `COc1cc2ncnc(Nc3cccc(Cl)c3)c2cc1OC` [AG1478], the “effect on ROS induction by SSc IgG in normal fibroblasts” value (“effect on ROS induction by SSc IgG” for short) in the assay with normal human fibroblasts is given as “prevented”. Also, the “effect on Ha-Ras induced by SSc IgG” value in the assay on Ha-Ras (normal human fibroblasts, FIG. 2B, inhibitor for 2 h) is “slight inhibition”.

`COc1cc2ncc(-c3ccccc3)nc2cc1OC` [AG 1296]: the “effect on ROS induced in Fα cells incubated with SSc IgG” value in assay [2] is reported as “inhibited”.

As for `c1ccc2c(c1)[I+]c1ccccc1-2` [DPI, diphenylene iodonium], in the assay with Ha-Ras (PDGF 15 ng/ml), the “effect on Ha-Ras induction by PDGF” value is “significantly inhibited”. Further, in the assay with ERK1/2, the “effect on ERK1/2 activated by PDGF” value is listed as “sensitive”.

Turning to `COC(=O)[C@H](CCSC)NC(=O)c1ccc(NC[C@@H](N)CS)cc1-c1ccccc1` [FTI-277], the “effect on ROS induction by SSc IgG” value with normal human fibroblasts is “prevented”.

For `C[C@@H]1C[C@@H]([C@H](O)CC2CC(=O)NC(=O)C2)C(=O)[C@@H](C)C1` [cycloheximide], the “effect on Ha-Ras induction by PDGF” value in the assay on Ha-Ras (PDGF 15 ng/ml) is on record as “did not prevent”.

For `O=c1c(-c2ccc(O)cc2)coc2cc(O)cc(O)c12` [genistein], in the assay with Ha-Ras (setting [3]), the “effect on Ha-Ras induced by H2O2, longer incubation” value is reported as “inhibited”. The “effect on Ha-Ras induction by PDGF” value in the assay with Ha-Ras (PDGF 15 ng/ml) was “inhibited”. Further, in the assay with ERK1/2 (setting [3]), the “effect on ERK1/2 induced by H2O2, longer incubation” value is given as “inhibited”.

Consider cyclodextrin, for which the “effect on Ha-Ras induction by PDGF” value with Ha-Ras (PDGF 15 ng/ml) is recorded as “did not abolish”.

As to `CC(=O)N[C@@H](CS)C(=O)O` [NAC, N-acetyl-L-cysteine], the “effect on Ha-Ras induction by PDGF” value in the assay with Ha-Ras (PDGF 15 ng/ml) is recorded as “significantly inhibited”. The “effect on ERK1/2 activated by PDGF” value in the assay on ERK1/2 is on record as “sensitive”.

On to `COc1cccc(-c2cc(=O)c3ccccc3o2)c1N` [PD98059], for which the “effect on ROS induction by SSc IgG” value in the assay on normal human fibroblasts is given as “prevented”. The “effect on induction of Ha-Ras by H2O2” value with Ha-Ras (PD 98059 2 h, U0126 15 min incubation, FIGS. 6A, 6B) was “abolished”. Besides, the “effect on Ha-Ras induction by PDGF” value in the assay with Ha-Ras (PDGF 15 ng/ml) was “inhibited”. Also, the “effect on oxidative stress-induced apoptosis” value in the assay on SSc fibroblasts is given as “inhibited”.

On to `CC(C)C[C@@H](C=O)NC(=O)[C@H](CC(C)C)NC(=O)[C@H](CC(C)C)NC(=O)OCc1ccccc1` [MG132] (Cbz-Leu-Leu-Leu-aldehyde), for which, in the assay with Ha-Ras (FIG. 6E), the “effect on Ha Ras when administered with PDGF or H2O2” value was “not additive” and the “effect on Ha Ras levels” value is recorded as “induced”.
